How the values were obtained:
HIV-1IIIB = assay: HIV-1 antiviral assay (CPE reduction, MTS) in CEM-SS cells; type: cell-based; details: for antiviral activity of positive control compounds (in words): HIV-1 assay validity; for % CPE reduction in HIV-1 infected CEM-SS cells: test peptide 10 micrograms per ml, 6 days post-infection, MTS
CEM-SS cells = assay: Cytotoxicity (MTS cell viability) in the HIV-1 assay; details: test peptide 10 micrograms per ml, MTS
HepG2-2.2.15 cells = assay: Cytotoxicity (dye uptake cell viability) in the HBV assay; type: cell-based; details: % cell control
MRC-5 cells = assay: Cytotoxicity testing in MRC-5 cells (CellTiter 96); type: cell-based, human; details: 6 days incubation
Method: (§1) Cells were split twic a week 1:2.
(§2) For cytotxicity testing, MRC-5 cells were seeded at 2,500 cells/well in 96 well plates using growth medium. […] The following day, peptide was added and tested in duplicates. After a 6 days incubation period, cell viability was measured using CellTiter 96 Solution (Promega). Plates were incubated for additional 4 hours at 37° C.

HCMV strain AD169 = assay: HCMV plaque reduction assay in MRC-5 cells; type: cell-based
Source text: as §1
Ganciclovir was used as positive control.

HUVEC = assay: Endothelial tube formation assay; type: cell-based, human; details: peptide 10 micrograms per ml; 20 hours
Source text: Positive control was vehicle only. […] Raw data were expressed as average tubule lenghs in pixels±standard deviation.

A549 cells [1] = assay: Cell cycle assay (propidium iodide, FACS); type: cell-based, human; details: peptide 10 micrograms per ml, 24 hours
[2] = tested on: Interleukin-5 (IL-5), spleen cells; assay: Th1/Th2 cytokine profiling assay: IL-5; type: cell-based, Balb/c mice; details: peptide 10 micrograms per ml; Ovalbumin restimulation 10 micrograms/ml; 72 hours
RAW 264.7 cells = assay: Phagocytosis assay (Fluorescein-labeled Escherichia coli, flow cytometry); type: cell-based, mouse; details: peptide 10 micrograms per ml; 30 min preincubation, 60 min ingestion
Method: RAW 264.7 (Mouse leukaemic monocyte macrophage cell line) cells were obtained from ATCC and grown in RPMI 1640 medium containing 10% FBS. […] After the cells were incubated for additional 60 min at 37° C. and allowed to ingest the Fluorescein-labeled Escherichia coli bacteria, cells were fixed with 1% paraformaldehyde. The samples were then analyzed by flow cytometry to determine the amount of phagocytosis as a function of brightness (the greater the phagocytic activity, the more fluorescence in the macrophage population). Data are reported as % positive and the mean fluorescence intensity (MFI) of positively stained cells.

[3] = tested on: Human Peripheral Blood Mononuclear Cells (PBMC), B cell proliferation; assay: B cell proliferation assay (SAC plus Interleukin-2, 3H-thymidine); type: cell-based; details: peptide 10 micrograms per ml; 3 days plus 12 hours 3H-thymidine
[4] = tested on: Interleukin-4 (IL-4), spleen cells; assay: Th1/Th2 cytokine profiling assay: IL-4; type: cell-based, Balb/c mice; details: peptide 10 micrograms per ml; Ovalbumin restimulation 10 micrograms/ml; 72 hours
[5] = Cytotoxicity testing in MRC-5 cells (CellTiter 96); type: cell-based, human; details: human, MRC-5 cells (embryonal lung fibroblasts), 6 days incubation, read-out: % Cell Viability
Method: as §1, §2

[6] = tested on: Human Peripheral Blood Mononuclear Cells (PBMC), T cell proliferation; assay: T cell proliferation assay (PHA, 3H-thymidine); type: cell-based; details: peptide 10 micrograms per ml; 3 days plus 12 hours 3H-thymidine
[7] = tested on: Tumor Necrosis Factor-α (TNF-α), spleen cells; assay: Th1/Th2 cytokine profiling assay: TNF-α; type: cell-based, Balb/c mice; details: peptide 10 micrograms per ml; Ovalbumin restimulation 10 micrograms/ml; 72 hours
Pseudomonas aeruginosa = Pseudomonas aeruginosa assay; type: cell-based; details: peptide 10 micrograms per ml, visual reading of growth
Streptococcus pneumoniae = Streptococcus pneumoniae assay; type: cell-based; details: peptide 10 micrograms per ml, visual reading of growth
[8] = tested on: hepatitis B virus (HBV) ayw strain in HepG2-2.2.15 cells; assay: HBV experimental assay system (secreted HBV DNA, TaqMan PCR); type: cell-based; details: test peptide 10 micrograms per ml; six days; HBV DNA in supernatant
[9] = tested on: Primary Human endothelial cells (HUVEC); assay: Endothelial cell migration assay; type: cell-based; details: peptide 10 micrograms per ml; 22 hours
[10] = tested on: Interferon-γ (IFN-γ), spleen cells; assay: Th1/Th2 cytokine profiling assay: IFN-γ; type: cell-based, Balb/c mice; details: peptide 10 micrograms per ml; Ovalbumin restimulation 10 micrograms/ml; 72 hours
[11] = tested on: cyclic AMP generation in human peripheral blood mononuclear cells (PBMC); assay: cAMP induction assay (ELISA); type: cell-based; details: 10 min at 37° C.; forskolin 50 micrograms per ml as positive control
Method: The cAMP kit was used as an immunoassay for the quantitative determination of cyclic AMP generation in human peripheral blood mononuclear cells (PBMC). PBMC were placed in 96-well microtitier plates (50 microliters of cells at 4×10^6/ml) and 50 microliters of medium alone (background control), forskolin (cAMP positive control; 50 micrograms per ml), or test peptide were added. Plates were mixed and incubated for 10 min at 37° C. and the cells were lysed by the addition of 50 microliters of 3% perchloric acid. NaOH was added to neutralize the samples. Plates were centrifuged for 15 min at 2500 rpm and the supernatants removed. The supernatants (diluted 2-fold in assay buffer) were then assayed for the levels of cAMP by ELISA.

A549 cells [12] = assay: Apoptosis prevention assay (C2 ceramide, Annexin-5); type: cell-based, human; details: peptide 10 micrograms per ml; 30 min pretreatment, then C2 ceramide
[13] = tested on: Interleukin-2 (IL-2), spleen cells; assay: Th1/Th2 cytokine profiling assay: IL-2; type: cell-based, Balb/c mice; details: peptide 10 micrograms per ml; Ovalbumin restimulation 10 micrograms/ml; 72 hours
A549 cells [14] = assay: Apoptosis induction assay (Annexin-5); type: cell-based, human; details: peptide 10 micrograms per ml, 24 hours
[15] = tested on: TNF alpha production in PBMC-derived macrophages; assay: TNF alpha production assay (LPS-stimulated macrophages, ELISA); type: cell-based, human; details: peptide 10 micrograms per ml, 30 min; lipopolysaccharide 200 ng/ml; overnight
Source text: Not stimulated macrophages served as negative background control.

[16] = Cytotoxicity (dye uptake cell viability) in the HBV assay; type: cell-based; details: human, HepG2-2.2.15 cells, % cell control
MRSA = details: peptide 10 micrograms per ml, visual reading of growth
[17] = Cytotoxicity (MTS cell viability) in the HIV-1 assay; details: human, CEM-SS cells

## Cc1cn([C@H]2C[C@H](N=[N+]=[N-])[C@@H](CO)O2)c(=O)[nH]c1=O [AZT]
HIV-1IIIB
  antiviral activity of positive control compounds (in words): expected levels of antiviral activity
  % CPE reduction in HIV-1 infected CEM-SS cells: 99%
CEM-SS cells
  % Cell viability: 97%

## Nc1ccn([C@@H]2CS[C@H](CO)O2)c(=O)n1 [Compound 3TC, Lamivudine, reference compound]
HepG2-2.2.15 cells
  % Cell viability: 95.8%

## Nc1nc(O)c2ncn(COC(CO)CO)c2n1 [Ganciclovir, reference compound]
MRC-5 cells
  % Cell viability: 100%
HCMV strain AD169; HCMV assay validity
  antiviral activity of positive control compound (in words): expected levels of antiviral activity

## CC(C)(C)NC(=O)[C@@H]1CN(Cc2cccnc2)CCN1C[C@@H](O)C[C@@H](Cc1ccccc1)C(=O)N[C@H]1c2ccccc2C[C@H]1O [Indinavir]
HIV-1IIIB
  antiviral activity of positive control compounds (in words): expected levels of antiviral activity
CEM-SS cells
  % Cell viability: 93%

## NC(=O)[C@@H]1CCCN1C(=O)[C@H](Cc1cnc[nH]1)NC(=O)[C@@H]1CCC(=O)N1 [TRH, Pyr-His-Pro-NH2]
HUVEC
  % inhibition of tube formation: 7%
A549 cells [1]
  Cell cycle analysis G0/G1: 58.1
  Cell cycle analysis G2/M: 10.7
  Cell cycle analysis S: 31.3
[2]
  IL-5 spleen cells; TH2 response (% of control): 67.5 % of control
RAW 264.7 cells
  % of control phagocytosis: 131.4%
[3]
  % of SAC/IL2 induced control: 106.0%
[4]
  IL-4 spleen cells; TH2 response (% of control): 106.2 % of control
[5]
  viability at 144 h: 100%
HCMV strain AD169; peptide 10 micrograms per ml, 7-10 days, MRC-5 cells
  % plaque reduction: 0.0%
[6]
  % of PHA induced Control: 98.6%
[7]
  TNF-a spleen cells; TH1 response (% of control): 110.7 % of control
Pseudomonas aeruginosa
  % inhibition: 0.0%
Streptococcus pneumoniae
  % inhibition: 0.0%
[8]
  % inhibition of HBV replication in HEP G2 cells: 3.3%
[9]
  % inhibition of migration: −12%
[10]
  IFNγ spleen cells; TH1 response (% of control): 102.0 % of control
[11]
  % of Forskolin (positive control) induced cAMP formation: 0.0%
A549 cells [12]
  % prevention of ceramide induced apoptosis: 17.2%
[13]
  IL-2 spleen cells (% of control): 0.0 % of control
A549 cells [14]
  % of induction: 0.7%
[15]
  % of LPS induction: 106.7%
HIV-1IIIB
  % CPE reduction in HIV-1 infected CEM-SS cells: 0.0%
[16]
  viability at 144 h, 10 micrograms per ml: 87.4%
MRSA
  % inhibition: 0.0%
[17]
  viability at 10 micrograms per ml: 94.6%
